# Assay results as given in patent US9617260B2, “Inhibitors of bruton's tyrosine kinase” (Hoffmann-La Roche Inc., priority 2013, dated 2017).
# Molecular target: Bruton's Tyrosine Kinase (BTK), inactivated state (Homo sapiens (Human), UniProt Q06187)
# Test: Bruton's Tyrosine Kinase (BTK) Inhibition TR-FRET (Time Resolved FRET) competition assay
# Type: binding
# Conditions: competition with Kinase Tracer 178 for BTK-Eu; plates incubated 18-24 h at 14° C.
# Method: Bruton's Tyrosine Kinase (BTK) Inhibition TR-FRET (Time Resolved FRET) Assay
# This BTK competition assay measures compound potency (IC50) for the inactivated state of Bruton's Tyrosine Kinase using FRET (Förster/Fluoresence Resonance Energy Transfer) technology. The BTK-Eu complex was incubated on ice one hour prior to use at a starting concentration of 50 nM BTK-Bioease™: 10 nM Eu-streptavidin (Perkin-Elmer Catalog #AD0062). The assay buffer consisted of 20 mM HEPES (pH 7.15), 0.1 mM DTT, 10 mM MgCl2, 0.5 mg/ml BSA with 3% Kinase Stabilizer (Fremont Biosolutions, Catalog #STB-K02). After 1 h, the reaction mixture from above was diluted 10 fold in assay buffer to make 5 nM BTK: 1 nM Eu-Streptavidin complex (donor fluorophore). 18 μl of a mixture of 0.11 nM BTK-Eu and 0.11 nM Kinase Tracer 178 (Invitrogen, Catalog #PV5593,) with BTK-Eu alone as no negative control, was then dispensed into 384-well flat bottom plates (Greiner, 784076). Compounds to be tested in assay were prepared as 10× concentrations and serial dilution in half-log increments was performed in DMSO so as to generate 10 point curves. To initiate the FRET reaction, compounds prepared as 10× stock in DMSO was added to the plates and the plates were incubated 18-24 h at 14° C.
# After the incubation the plates were read on a BMG Pherastar Fluorescent plate reader (or equivalent) and used to measure the emission energy from the europium donor fluorophore (620 nm emission) and the FRET (665 nm emission). The negative control well values were averaged to obtain the mean minimum. The positive “no inhibitor” control wells were averaged to obtain the mean maximum. Percent of maximal FRET was calculated using following equation: % max FRET=100×[(FSRcmpd−FSRmean min)/(FSRmean max−FSRmean min)]
# where FSR=FRET Signal ratio. % Max FRET curves were plotted in Activity Base (Excel) and the IC50 (%), hill slope, z′ and % CV were determined The mean IC50 and standard deviation will be derived from duplicate curves (singlet inhibition curves from two independent dilutions) using Microsoft Excel.
# Representative compound data for this assay are listed below in Table II.
# Bruton's Tyrosine Kinase (BTK), inactivated state, sequence (Q06187 whole entry): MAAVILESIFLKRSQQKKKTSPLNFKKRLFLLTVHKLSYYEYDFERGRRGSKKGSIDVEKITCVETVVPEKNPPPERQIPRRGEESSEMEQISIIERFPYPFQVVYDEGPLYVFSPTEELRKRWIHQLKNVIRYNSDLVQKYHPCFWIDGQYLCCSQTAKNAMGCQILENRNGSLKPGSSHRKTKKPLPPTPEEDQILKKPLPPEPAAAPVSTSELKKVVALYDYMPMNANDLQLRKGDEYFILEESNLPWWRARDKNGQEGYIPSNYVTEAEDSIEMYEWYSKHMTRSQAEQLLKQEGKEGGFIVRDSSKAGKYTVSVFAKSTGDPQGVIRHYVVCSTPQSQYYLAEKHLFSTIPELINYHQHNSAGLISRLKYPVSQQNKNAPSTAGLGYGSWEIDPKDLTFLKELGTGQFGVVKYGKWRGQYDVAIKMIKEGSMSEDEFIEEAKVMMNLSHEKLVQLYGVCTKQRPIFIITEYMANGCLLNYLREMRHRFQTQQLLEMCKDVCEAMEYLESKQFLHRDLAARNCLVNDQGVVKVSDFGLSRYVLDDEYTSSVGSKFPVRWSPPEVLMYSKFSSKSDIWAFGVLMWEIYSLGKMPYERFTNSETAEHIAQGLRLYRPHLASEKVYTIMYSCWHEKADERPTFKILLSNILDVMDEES
row,Structure (SMILES),IC50
1,"CN(C)C/C=C/C(=O)Nc1cccc(-c2c[nH]c3ncc(NC(=O)OCc4ccccc4)cc23)c1 [Compound 1, benzyl N-[3-[3-[[(E)-4-(dimethylamino)but-2-enoyl]amino]phenyl]-1H-pyrrolo[2,3-b]pyridin-5-yl]carbamate]",0.007 µM
2,"C=CC(=O)Nc1cccc(-c2c[nH]c3ncc(NC(=O)OCc4ccccc4)cc23)c1 [Compound 2, benzyl N-[3-[3-(prop-2-enoylamino)phenyl]-1H-pyrrolo[2,3-b]pyridin-5-yl]carbamate]",0.0003 µM
3,"C=CC(=O)Nc1cccc(-c2c[nH]c3ncc(NC(=O)OC(C)C)cc23)c1 [Compound 3, propan-2-yl N-[3-[3-(prop-2-enoylamino)phenyl]-1H-pyrrolo[2,3-b]pyridin-5-yl]carbamate]",0.0003 µM
4,"CCC(=O)C(=O)Nc1cccc(-c2c[nH]c3ncc(NC(=O)OCc4ccccc4)cc23)c1 [Compound 4, benzyl N-[3-[3-(2-oxobutanoylamino)phenyl]-1H-pyrrolo[2,3-b]pyridin-5-yl]carbamate]",0.008 µM
5,"CC(C)OC(=O)Nc1cnc2[nH]cc(-c3cccc(NC(=O)/C=C/CN(C)C)c3)c2c1 [Compound 5, propan-2-yl N-[3-[3-[[(E)-4-(dimethylamino)but-2-enoyl]amino]phenyl]-1H-pyrrolo[2,3-b]pyridin-5-yl]carbamate]",0.013 µM
6,"C=CC(=O)N(C)c1cccc(-c2c[nH]c3ncc(NC(=O)OC(C)C)cc23)c1 [Compound 6, propan-2-yl N-[3-[3-[methyl(prop-2-enoyl)amino]phenyl]-1H-pyrrolo[2,3-b]pyridin-5-yl]carbamate]",0.024 µM
7,"COCCC(=O)N(C)c1cccc(-c2c[nH]c3ncc(NC(=O)OC(C)C)cc23)c1 [Compound 7, propan-2-yl N-[3-[3-[3-methoxypropanoyl(methyl)amino]phenyl]-1H-pyrrolo[2,3-b]pyridin-5-yl]carbamate]",0.88 µM
8,"CCC(=O)C(=O)Nc1cccc(-c2c[nH]c3ncc(NC(=O)OC(C)C)cc23)c1 [Compound 8, propan-2-yl N-[3-[3-(2-oxobutanoylamino)phenyl]-1H-pyrrolo[2,3-b]pyridin-5-yl]carbamate]",0.049 µM
9,"C=C(C(=O)Nc1cccc(-c2c[nH]c3ncc(NC(=O)OCc4ccccc4)cc23)c1)C(F)(F)F [Compound 9, benzyl N-[3-[3-[2-(trifluoromethyl)prop-2-enoylamino]phenyl]-1H-pyrrolo[2,3-b]pyridin-5-yl]carbamate]",0.072 µM
10,"CC(C)(C)C(=O)C(=O)Nc1cccc(-c2c[nH]c3ncc(NC(=O)OCc4ccccc4)cc23)c1 [Compound 10, benzyl N-[3-[3-[(3,3-dimethyl-2-oxobutanoyl)amino]phenyl]-1H-pyrrolo[2,3-b]pyridin-5-yl]carbamate]",0.1 µM
11,"CCC(C)C(=O)C(=O)Nc1cccc(-c2c[nH]c3ncc(NC(=O)OCc4ccccc4)cc23)c1 (stereo not drawn) [Compound 11, benzyl N-[3-[3-[(3-methyl-2-oxopentanoyl)amino]phenyl]-1H-pyrrolo[2,3-b]pyridin-5-yl]carbamate]",0.206 µM
12,"CC(C)CC(=O)C(=O)Nc1cccc(-c2c[nH]c3ncc(NC(=O)OCc4ccccc4)cc23)c1 [Compound 12, benzyl N-[3-[3-[(4-methyl-2-oxopentanoyl)amino]phenyl]-1H-pyrrolo[2,3-b]pyridin-5-yl]carbamate]",0.285 µM
13,"O=C(Nc1cnc2[nH]cc(-c3cccc(NC(=O)C(=O)c4ccccc4)c3)c2c1)OCc1ccccc1 [Compound 13, benzyl N-[3-[3-[(2-oxo-2-phenylacetyl)amino]phenyl]-1H-pyrrolo[2,3-b]pyridin-5-yl]carbamate]",0.323 µM
14,"CC(=O)C(=O)Nc1cccc(-c2c[nH]c3ncc(NC(=O)OCc4ccccc4Cl)cc23)c1 [Compound 14, (2-chlorophenyl)methyl N-[3-[3-(2-oxopropanoylamino)phenyl]-1H-pyrrolo[2,3-b]pyridin-5-yl]carbamate]",0.03 µM
15,"CCC(=O)C(=O)Nc1cccc(-c2c[nH]c3ncc(NC(=O)OCc4ccccc4Cl)cc23)c1 [Compound 15, (2-chlorophenyl)methyl N-[3-[3-(2-oxobutanoylamino)phenyl]-1H-pyrrolo[2,3-b]pyridin-5-yl]carbamate]",0.06 µM
16,"CCC(=O)C(=O)Nc1cccc(-c2c[nH]c3ncc(NC(=O)OCc4cccc(F)c4)cc23)c1 [Compound 16, (3-fluorophenyl)methyl N-[3-[3-(2-oxobutanoylamino)phenyl]-1H-pyrrolo[2,3-b]pyridin-5-yl]carbamate]",0.042 µM
17,"CC(=O)C(=O)Nc1cccc(-c2c[nH]c3ncc(NC(=O)OCc4cccc(F)c4)cc23)c1 [Compound 17, (3-fluorophenyl)methyl N-[3-[3-(2-oxopropanoylamino)phenyl]-1H-pyrrolo[2,3-b]pyridin-5-yl]carbamate]",0.0437 µM
18,"C=C(C(=O)Nc1cccc(-c2c[nH]c3ncc(NC(=O)OCc4cccc(F)c4)cc23)c1)C(F)(F)F [Compound 18, (3-fluorophenyl)methyl N-[3-[3-[2-(trifluoromethyl)prop-2-enoylamino]phenyl]-1H-pyrrolo[2,3-b]pyridin-5-yl]carbamate]",0.123 µM
19,"CCC(=O)C(=O)Nc1cccc(-c2c[nH]c3ncc(NC(=O)OCc4cccc(C#N)c4)cc23)c1 [Compound 19, (3-cyanophenyl)methyl N-[3-[3-(2-oxobutanoylamino)phenyl]-1H-pyrrolo[2,3-b]pyridin-5-yl]carbamate]",0.114 µM
20,"CC(=O)C(=O)Nc1cccc(-c2c[nH]c3ncc(NC(=O)OCc4cccc(C#N)c4)cc23)c1 [Compound 20, (3-cyanophenyl)methyl N-[3-[3-(2-oxopropanoylamino)phenyl]-1H-pyrrolo[2,3-b]pyridin-5-yl]carbamate]",0.137 µM
21,"N#CC1(C(=O)Nc2cccc(-c3c[nH]c4ncc(NC(=O)OCc5ccccc5)cc34)c2)CC1 [Compound 21, benzyl N-[3-[3-[(1-cyanocyclopropanecarbonyl)amino]phenyl]-1H-pyrrolo[2,3-b]pyridin-5-yl]carbamate]",0.287 µM
22,"CC(C)OC(=O)Nc1cnc2[nH]cc(-c3cccc(NC(=O)CC#N)c3)c2c1 [Compound 22, propan-2-yl N-[3-[3-[(2-cyanoacetyl)amino]phenyl]-1H-pyrrolo[2,3-b]pyridin-5-yl]carbamate]",0.62 µM
23,"CN(C)C/C=C/C(=O)Nc1ccccc1-c1c[nH]c2ncc(NC(=O)OCc3ccccc3)cc12 [Compound 23, benzyl N-[3-[2-[[(E)-4-(dimethylamino)but-2-enoyl]amino]phenyl]-1H-pyrrolo[2,3-b]pyridin-5-yl]carbamate]",0.331 µM
24,"CC(=O)C(=O)N1CC=C(c2c[nH]c3ncc(NC(=O)OCc4ccccc4Cl)cc23)CC1 [Compound 24, (2-chlorophenyl)methyl N-[3-[1-(2-oxopropanoyl)-3,6-dihydro-2H-pyridin-4-yl]-1H-pyrrolo[2,3-b]pyridin-5-yl]carbamate]",0.165 µM
25,"CCC(=O)C(=O)N1CC=C(c2c[nH]c3ncc(NC(=O)OCc4ccccc4Cl)cc23)CC1 [Compound 25, (2-chlorophenyl)methyl N-[3-[1-(2-oxobutanoyl)-3,6-dihydro-2H-pyridin-4-yl]-1H-pyrrolo[2,3-b]pyridin-5-yl]carbamate]",0.404 µM
26,"CCC(=O)C(=O)N1CC=C(c2c[nH]c3ncc(NC(=O)OCc4cccc(F)c4)cc23)CC1 [Compound 26, (3-fluorophenyl)methyl N-[3-[1-(2-oxobutanoyl)-3,6-dihydro-2H-pyridin-4-yl]-1H-pyrrolo[2,3-b]pyridin-5-yl]carbamate]",0.384 µM
27,"CCC(=O)C(=O)N1CC=C(c2c[nH]c3ncc(NC(=O)OCc4ccccc4)cc23)CC1 [Compound 27, benzyl N-[3-[1-(2-oxobutanoyl)-3,6-dihydro-2H-pyridin-4-yl]-1H-pyrrolo[2,3-b]pyridin-5-yl]carbamate]",0.291 µM
28,"CC(=O)C(=O)N1CC=C(c2c[nH]c3ncc(NC(=O)OCc4cccc(F)c4)cc23)CC1 [Compound 28, (3-fluorophenyl)methyl N-[3-[1-(2-oxopropanoyl)-3,6-dihydro-2H-pyridin-4-yl]-1H-pyrrolo[2,3-b]pyridin-5-yl]carbamate]",0.21 µM
29,"CC(=O)C(=O)N1CC=C(c2c[nH]c3ncc(NC(=O)OCc4cccc(C#N)c4)cc23)CC1 [Compound 29, (3-cyanophenyl)methyl N-[3-[1-(2-oxopropanoyl)-3,6-dihydro-2H-pyridin-4-yl]-1H-pyrrolo[2,3-b]pyridin-5-yl]carbamate]",0.7 µM
30,"C=CC(=O)N1CC=C(c2c[nH]c3ncc(NC(=O)OCc4ccccc4)cc23)CC1 [Compound 30, benzyl N-[3-(1-prop-2-enoyl-3,6-dihydro-2H-pyridin-4-yl)-1H-pyrrolo[2,3-b]pyridin-5-yl]carbamate]",0.0012 µM
